# Results taken from patent US20260317250A1, “TRIAZOLE METHANOL AS NITRIFICATION INHIBITOR FOR FERTILIZER APPLICATION” (SABIC AGRI-NUTRIENTS COMPANY, priority 2022, published 2026).
# Test system: nitrification of the ammonia nitrogen (NH4—N) in the sludge
# Assay: Nitrification batch test in crop soil/water sludge under nitrifying conditions
# Details: for inhibition of nitrification of ammonia nitrogen (NH4—N) in the sludge: Tables 3 and 4, in words; for nitrification process: first 8 hours; for NH4—N Conversion Rate During First 24 Hours: dosed NH4—N 50 mg/l; for NH4—N Conversion Rate During First 24 Hours / COD / NH4—N concentration / NO3—N concentration: DCD 5.8 mg/l
# Procedure: Crop soil and water were combined to form a sludge. The freshly-acquired sludge contained a high amount of nitrate nitrogen, therefore, the sludge was pretreated to reduce the chance of denitrification during analysis. Ethylene glycol was added to the sludge and the resulting sludge was purged with nitrogen gas for 24 hours to eliminate the nitrate nitrogen. After 24 hours, the sludge was aerated to eliminate the residual chemical oxygen demand (COD) which could be present. COD refers to the amount of oxygen required to degrade all oxidizable compounds in a measured sample.
# A nitrification batch test was performed under nitrifying conditions. The activity of nitrification inhibitor Formula II compound was compared to that of the nitrification inhibitor dicyandiamide (DCD). COD and NH4—N were added to the sludge with one of the Formula II compound or DCD. COD, NH4—N, and NO3—N concentrations were monitored over time (t=0, 2, 4, 6, 8, 24 and 29 hours). The COD and NH4—N removal was calculated from the analysis results. Glycol was included as a reference in the test.
# The pH and oxygen content were also monitored during the tests. The pH level was kept between 7 and 8 at the beginning of the tests by adding 1N HCl or 1N NaOH. Oxygen was constantly purged into the sludge solutions throughout the test to get maximum aeration.
# Table 2 includes the concentrations assessed for the five batch tests. A sample concentration of approximately 10% compared to the NH4—N concentration was employed.
# Values shown in brackets are below the quantification limit and are indicative. Measurements taken at time=0 were taken 60 seconds after mixing the sludge with the indicated substance. The nitrification process was nominal for both DCD and Formula II compound during the first 8 hours, then nitrification rates increased. The NH4—N and NO3—N concentrations were tested at 29 hours to verify that the nitrification process was still ongoing.
# [1] = first 24 hours, Formula II compound 7.6 mg/l
# [2] = time 0 h (60 seconds after mixing), dosed COD 800 mg O2/l, NH4—N 50 mg/l, Formula II compound 7.6 mg/l
# [3] = time 2 h, dosed COD 800 mg O2/l, NH4—N 50 mg/l, Formula II compound 7.6 mg/l
# [4] = time 4 h, dosed COD 800 mg O2/l, NH4—N 50 mg/l, Formula II compound 7.6 mg/l
# [5] = time 6 h, dosed COD 800 mg O2/l, NH4—N 50 mg/l, Formula II compound 7.6 mg/l
# [6] = time 8 h, dosed COD 800 mg O2/l, NH4—N 50 mg/l, Formula II compound 7.6 mg/l
# [7] = time 24 h, dosed COD 800 mg O2/l, NH4—N 50 mg/l, Formula II compound 7.6 mg/l
# [8] = time 29 h, dosed COD 800 mg O2/l, NH4—N 50 mg/l, Formula II compound 7.6 mg/l
Structure (SMILES),inhibition of nitrification of ammonia nitrogen (NH4—N) in the sludge,nitrification process (in words),NH4—N Conversion Rate During First 24 Hours [1],COD [2],NH4—N concentration [2],NO3—N concentration [2],COD [3],NH4—N concentration [3],NO3—N concentration [3],COD [4],NH4—N concentration [4],NO3—N concentration [4],COD [5],NH4—N concentration [5],NO3—N concentration [5],COD [6],NH4—N concentration [6],NO3—N concentration [6],COD [7],NH4—N concentration [7],also measured
"N#CNC(=N)N [DCD, dicyandiamide, reference compound]",effective at inhibiting the nitrification of the ammonia nitrogen (NH4—N) in the sludge,nominal,1.5 mg NH4—N/l · h,757 mg O2/l,45.9 mg/L,8.6 mg/L,558 mg O2/l,43.0 mg/L,5.5 mg/L,360 mg O2/l,39.4 mg/L,8.9 mg/L,190 mg O2/l,39.7 mg/L,7.4 mg/L,121 mg O2/l,33.2 mg/L,7.3 mg/L,48 mg O2/l,9.9 mg/L,NO3—N concentration [7]: 39.0 mg/L; NH4—N concentration [8]: 4.0 mg/L; NO3—N concentration [8]: 47.2 mg/L
"OCn1cncn1 [Formula II compound, (1H-1,2,4-triazole-1-yl)-methanol]",effective at inhibiting the nitrification of the ammonia nitrogen (NH4—N) in the sludge,nominal,0.9 mg NH4—N/l · h,718 mg O2/l,45.2 mg/L,8.8 mg/L,497 mg O2/l,41.6 mg/L,13.8 mg/L,314 mg O2/l,40.3 mg/L,11.8 mg/L,204 mg O2/l,42.0 mg/L,7.2 mg/L,158 mg O2/l,37.9 mg/L,< 2.3 mg/L,60 mg O2/l,23.8 mg/L,"effectiveness at inhibiting nitrification compared with DCD (first 24 hours, in words): more effective at inhibiting nitrification during the first 24 hours; NO3—N concentration, indicative value in brackets (below the quantification limit) [6]: 1.5 mg/L; NO3—N concentration [7]: 16.2 mg/L; NH4—N concentration [8]: 22.9 mg/L; NO3—N concentration [8]: 20.4 mg/L"
